Assay results as given in the supplement of paper PMC10307832.

Assays:
Test in all cases: relative viability (nuclei count vs DMSO), 5 days (fraction); higher = more cells survive
Cediranib + Bortezomib = compound: COc1cc2c(Oc3ccc4[nH]c(C)cc4c3F)ncnc2cc1OCCCN1CCCC1 [Cediranib] + CC(C)C[C@H](NC(=O)[C@H](Cc1ccccc1)NC(=O)c1cnccn1)B(O)O [Bortezomib] (partner 0.002 µM)
Method in brief: (§1)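 Lung cancer cell lines were pin-tool dosed in 1536-well plates on the day after seeding, with either a lone drug or a fixed anchor-drug dose plus five library-drug doses (not always all listed) in √10 steps. Nuclei were counted on 4× images after 5 days. Relative viability is the ratio of treated-well to vehicle-well nuclei counts, with each value a median of duplicate plates.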

Decitabine + Lapatinib = compound: Nc1ncn([C@H]2C[C@H](O)[C@@H](CO)O2)c(=O)n1 [Decitabine] + CS(=O)(=O)CCNCc1ccc(-c2ccc3ncnc(Nc4ccc(OCc5cccc(F)c5)c(Cl)c4)c3c2)o1 [Lapatinib] (partner 2 µM)
Method in brief: as §1

Decitabine + Pemetrexed = compound: Nc1ncn([C@H]2C[C@H](O)[C@@H](CO)O2)c(=O)n1 [Decitabine] + Nc1nc2[nH]cc(CCc3ccc(C(=O)N[C@@H](CCC(=O)O)C(=O)O)cc3)c2c(=O)[nH]1 [Pemetrexed] (partner 0.2 µM)
Method in brief: as §1

[1] = compound: O=C(C[C@H]1NCCC[C@@H]1O)Cn1cnc2cc(Br)c(Cl)cc2c1=O (racemic) [Halofuginone] + CC1(C)CCC(c2ccc(Cl)cc2)=C(CN2CCN(c3ccc(C(=O)NS(=O)(=O)c4ccc(N[C@H](CCN5CCOCC5)CSc5ccccc5)c(S(=O)(=O)C(F)(F)F)c4)cc3)CC2)C1 [Navitoclax] (partner 0.5 µM)
Method in brief: as §1

| Cell Line | relative viability (Cediranib + Bortezomib; first compound 0.04 µM) | relative viability (Cediranib + Bortezomib; first compound 0.1265 µM) | relative viability (Cediranib + Bortezomib; first compound 0.4 µM) | relative viability (Cediranib + Bortezomib; first compound 1.265 µM) | relative viability (Cediranib + Bortezomib; first compound 4 µM) | relative viability (Decitabine + Lapatinib; first compound 0.04 µM) | relative viability (Decitabine + Lapatinib; first compound 0.1265 µM) | relative viability (Decitabine + Lapatinib; first compound 0.4 µM) | relative viability (Decitabine + Lapatinib; first compound 1.265 µM) | relative viability (Decitabine + Lapatinib; first compound 4 µM) | relative viability (Decitabine + Pemetrexed; first compound 0.04 µM) | relative viability (Decitabine + Pemetrexed; first compound 0.1265 µM) | relative viability (Decitabine + Pemetrexed; first compound 0.4 µM) | relative viability (Decitabine + Pemetrexed; first compound 1.265 µM) | relative viability (Decitabine + Pemetrexed; first compound 4 µM) | relative viability ([1]; first compound 0.001 µM) | relative viability ([1]; first compound 0.003162 µM) | relative viability ([1]; first compound 0.01 µM) | relative viability ([1]; first compound 0.03162 µM) | relative viability ([1]; first compound 0.1 µM) |
| --- | --- | --- | --- | --- | --- | --- | --- | --- | --- | --- | --- | --- | --- | --- | --- | --- | --- | --- | --- | --- |
| HCC-78 | 0.51 | 0.576 | 0.504 | 0.533 | 0.601 | 0.819 | 0.862 | 0.46 | 0.411 | 0.388 | 0.902 | 1.18 | 0.874 | 0.825 | 0.864 | 0.75 | 0.758 | 0.725 | 0.817 | 0.435 |
| HCC-366 | 0.968 | 1.03 | 0.963 | 0.888 | 1.22 | 0.938 | 1.07 | 0.214 | 0.164 | 0.113 | 0.16 | 0.115 | 0.0833 | 0.0595 | 0.0583 | 1.05 | 1.07 | 1.04 | 1.04 | 0.0551 |
| HCC-827 | 1.03 | – | 0.967 | 1.11 | 1.08 | – | 0.168 | 0.187 | 0.187 | 0.2 | 0.161 | 0.585 | 0.198 | 0.202 | 0.219 | 1.05 | 1.05 | 1.01 | 1.01 | 0.852 |
| IA-LM | 1.01 | 1.14 | 0.926 | 0.771 | 0.912 | 0.503 | 0.306 | 0.212 | 0.169 | 0.178 | – | – | – | – | – | 0.864 | 0.961 | 0.702 | 0.572 | 0.0557 |
| LCLC-103H | 0.989 | 1.12 | 0.921 | 1.14 | 1.11 | – | – | – | – | – | 0.426 | 0.362 | 0.284 | 0.379 | 0.333 | – | – | – | – | – |
| LK-2 | – | – | – | – | – | 0.784 | 0.991 | 0.75 | 0.521 | 0.402 | 0.194 | 0.256 | 0.223 | 0.245 | 0.211 | 0.78 | 0.979 | 0.81 | 0.931 | 0.603 |
| NCI-H358 | – | – | – | – | – | 0.468 | 0.512 | 0.388 | 0.284 | 0.334 | 0.152 | 0.168 | 0.129 | 0.131 | 0.161 | – | – | – | – | – |
| NCI-H441 | 0.304 | 0.688 | – | 0.498 | 0.934 | – | – | – | – | – | 0.214 | 0.203 | 0.184 | 0.197 | 0.235 | 0.607 | 0.674 | 0.562 | 0.586 | 0.34 |
| NCI-H522 | – | – | – | – | – | – | – | – | – | – | 0.979 | 0.839 | 0.677 | 0.705 | 0.505 | – | – | – | – | – |
| NCI-H650 | 0.873 | 0.625 | 0.879 | 0.764 | 0.718 | 0.786 | 0.532 | 0.339 | 0.356 | 0.292 | 0.686 | 0.588 | 0.382 | 0.273 | 0.266 | – | – | – | – | – |
| NCI-H661 | 0.907 | 1.11 | 0.793 | 0.805 | 1.16 | 0.465 | 0.455 | 0.382 | 0.297 | 0.269 | 0.779 | 0.657 | 0.572 | 0.481 | 0.404 | – | – | – | – | – |
| NCI-H727 | 0.807 | 0.55 | 0.789 | 0.64 | 0.747 | 0.709 | 0.659 | 0.483 | 0.447 | 0.433 | – | – | – | – | – | 0.481 | 0.316 | 0.397 | 0.355 | 0.22 |
| NCI-H1299 | 1.06 | 1.06 | 1.03 | 1.03 | 1.04 | 0.972 | 0.989 | 0.953 | 0.918 | 0.855 | – | – | – | – | – | 1.1 | 1.05 | 1.05 | 1.02 | 0.964 |
| NCI-H1395 | – | – | – | – | – | 0.819 | 0.675 | 0.571 | 0.528 | 0.821 | 0.64 | 0.685 | 0.744 | 0.474 | 0.484 | 1.15 | 1.44 | 1.07 | 1.16 | 1.26 |
| NCI-H1563 | 0.912 | 0.794 | 0.885 | 0.796 | 0.889 | 0.922 | 1.02 | 0.87 | 1.07 | 0.8 | 0.791 | 0.899 | 1.43 | 0.751 | 0.858 | – | – | – | – | – |
| NCI-H1648 | – | – | – | – | – | – | – | – | – | – | 0.637 | 0.582 | 0.506 | 0.483 | 0.435 | – | – | – | – | – |
| NCI-H1703 | 0.309 | 0.294 | 0.192 | 0.181 | 0.206 | 0.698 | 0.652 | 0.484 | 0.36 | 0.274 | – | – | – | – | – | 1.46 | 1.04 | 1.08 | 0.765 | 0.194 |
| NCI-H1793 | – | – | – | – | – | 0.543 | 0.604 | 0.489 | 0.562 | 0.291 | 0.692 | 0.875 | 0.511 | 0.44 | 0.303 | 0.409 | 0.367 | 0.406 | 0.396 | 0.195 |
| NCI-H1944 | – | – | – | – | – | 0.807 | 0.819 | 0.526 | 0.428 | 0.416 | 0.438 | 0.448 | 0.288 | 0.228 | 0.211 | 1.04 | 1.06 | 1.02 | 1.05 | 1.01 |
| NCI-H2170 | – | – | – | – | – | 0.281 | 0.267 | 0.268 | 0.251 | 0.249 | 0.276 | 0.221 | 0.227 | 0.217 | 0.21 | 0.631 | 0.724 | 0.595 | 0.699 | 0.387 |
| NCI-H2342 | – | – | – | – | – | – | – | – | – | – | 0.734 | 0.733 | 0.731 | 0.642 | 0.663 | – | – | – | – | – |
| SK-MES-1 | – | – | – | – | – | 0.463 | 0.49 | 0.406 | 0.383 | 0.286 | 0.828 | 0.682 | 0.458 | 0.343 | 0.338 | 1.22 | 1.16 | 1.18 | 0.67 | 0.197 |
| SW 900 | – | – | – | – | – | – | – | – | – | – | 0.415 | 0.411 | 0.345 | 0.277 | 0.303 | – | – | – | – | – |
